Values quoted from earlier work in article PMC6278306, “Anti-Leishmanial and Cytotoxic Activities of a Series of Maleimides: Synthesis, Biological Evaluation and Structure-Activity Relationship” (Molecules, 2018).

Tested on: 10 fungi
Parameters: method as in PMID 21481593
Conditions: against 10 fungi; cited from earlier work

In the case of `O=C1C=CC(=O)N1CCCCc1ccccc1` [N-(4-phenylbutyl)-maleimide], the MIC is listed as 0.48 to 15.63 µg/mL.
In the case of `CCCCN1C(=O)C=CC1=O` [N-butyl-maleimide], the MIC is listed as 0.48 to 15.63 µg/mL.
